The subject of assay [1] is HepG2. As to the kind of experiment: Antiproliferative activity against […] HepG2 cells after 48 hrs by MTT assay. The note with it: Homo sapiens, HepG2, 48 h. It counts as functional, cell-based. Background: Tetrazolium dyes change colour on reduction, which living cells bring about.
Assay [2] relates to MCF7. As to the kind of experiment: Antiproliferative activity against human MCF7 cells after 48 hrs by MTT assay. The assay is classed as functional, cell-based. As to conditions: MCF7, 48 h.
For assay [3], the target named is Tubulin (Bos taurus, UniProt Q6B856+Q862L2+Q862F3). As to the kind of experiment: Inhibition of bovine brain tubulin polymerization after 20 mins by turbidimetric method.
The subject of assay [4] is A549. As to the kind of experiment: Antiproliferative activity against human A549 cells after 48 hrs by MTT assay. The assay is classed as functional, cell-based. The note with it: A549, 48 h.
Assay [5] has as its system A549. As to the kind of experiment: Cell cycle arrest in human A549 cells assessed as G2/M arrest after 48 hrs by flow cytometry. The assay is classed as functional, cell-based. (In flow cytometry, cells or beads pass a laser one at a time.)
Assay [6] deals with A549. As to the kind of experiment: Induction of apoptosis in human A549 cells assessed as early apoptotic cells at 0.1 uM after 24 hrs using Annexin-V/PI staining by flow cytometry (reference value: 1.92 %). The assay is classed as functional.
Assay [7] deals with A549. As to the kind of experiment: Induction of apoptosis in human A549 cells assessed as viable cells at 0.1 uM after 24 hrs using Annexin-V/PI staining by flow cytometry (reference value: 91.0 %). It counts as functional. The note with it: A549, 24 h, read-out: Activity.
The subject of assay [8] is A549. As to the kind of experiment: Induction of apoptosis in human A549 cells assessed as late apoptotic cells at 0.05 uM after 24 hrs using Annexin-V/PI staining by flow cytometry (reference value: 4.01 %). The assay is classed as functional.
The subject of assay [9] is A549. As to the kind of experiment: Cell cycle arrest in human A549 cells assessed as accumulation at S phase at 0.05 uM after 48 hrs by flow cytometry (reference value: 13.83 %). The assay is classed as functional.
Assay [10] has as its system A549. As to the kind of experiment: Induction of apoptosis in human A549 cells assessed as late apoptotic cells at 0.01 uM after 24 hrs using Annexin-V/PI staining by flow cytometry (reference value: 4.01 %). It counts as functional.
The subject of assay [11] is A549. As to the kind of experiment: Induction of apoptosis in human A549 cells assessed as necrotic cells at 0.05 uM after 24 hrs using Annexin-V/PI staining by flow cytometry (reference value: 3.11 %). It counts as functional.
Assay [12] relates to A549. As to the kind of experiment: Cell cycle arrest in human A549 cells assessed as accumulation at G1 phase at 0.05 uM after 48 hrs by flow cytometry (reference value: 79.42 %). The assay is classed as functional.
For assay [13], the system named is A549. As to the kind of experiment: Induction of apoptosis in human A549 cells assessed as viable cells at 0.01 uM after 24 hrs using Annexin-V/PI staining by flow cytometry (reference value: 91.0 %). The assay is classed as functional. As to conditions: A549, 24 h, read-out: Activity.
For assay [14], the system named is A549. As to the kind of experiment: Cell cycle arrest in human A549 cells assessed as accumulation at G1 phase at 0.01 uM after 48 hrs by flow cytometry (reference value: 79.42 %). The assay is classed as functional.
Assay [15] deals with A549. As to the kind of experiment: Cell cycle arrest in human A549 cells assessed as accumulation at G1 phase at 0.1 uM after 48 hrs by flow cytometry (reference value: 79.42 %). The assay is classed as functional.
For assay [16], the system named is A549. As to the kind of experiment: Induction of apoptosis in human A549 cells assessed as late apoptotic cells at 0.1 uM after 24 hrs using Annexin-V/PI staining by flow cytometry (reference value: 4.01 %). It counts as functional.
The test system of assay [17] is A549. As to the kind of experiment: Induction of apoptosis in human A549 cells assessed as early apoptotic cells at 0.05 uM after 24 hrs using Annexin-V/PI staining by flow cytometry (reference value: 1.92 %). The assay is classed as functional.
The subject of assay [18] is A549. As to the kind of experiment: Induction of apoptosis in human A549 cells assessed as viable cells at 0.05 uM after 24 hrs using Annexin-V/PI staining by flow cytometry (reference value: 91.0 %). The assay is classed as functional. As to conditions: A549, 24 h, read-out: Activity.
In assay [19] the test system is A549. As to the kind of experiment: Cell cycle arrest in human A549 cells assessed as accumulation at G2 phase at 0.01 uM after 48 hrs by flow cytometry (reference value: 6.75 %). The assay is classed as functional.
Assay [20] relates to A549. As to the kind of experiment: Induction of apoptosis in human A549 cells assessed as necrotic cells at 0.1 uM after 24 hrs using Annexin-V/PI staining by flow cytometry (reference value: 3.11 %). The assay is classed as functional.
Assay [21] has as its system A549. As to the kind of experiment: Cell cycle arrest in human A549 cells assessed as accumulation at G2 phase at 0.1 uM after 48 hrs by flow cytometry (reference value: 6.75 %). The assay is classed as functional.
Assay [22] relates to A549. As to the kind of experiment: Induction of apoptosis in human A549 cells assessed as necrotic cells at 0.01 uM after 24 hrs using Annexin-V/PI staining by flow cytometry (reference value: 3.11 %). The assay is classed as functional.
The test system of assay [23] is A549. As to the kind of experiment: Cell cycle arrest in human A549 cells assessed as accumulation at S phase at 0.01 uM after 48 hrs by flow cytometry (reference value: 13.83 %). It counts as functional.
Assay [24] relates to A549. As to the kind of experiment: Cell cycle arrest in human A549 cells assessed as accumulation at G2 phase at 0.05 uM after 48 hrs by flow cytometry (reference value: 6.75 %). The assay is classed as functional.
In assay [25] the test system is A549. As to the kind of experiment: Induction of apoptosis in human A549 cells assessed as early apoptotic cells at 0.01 uM after 24 hrs using Annexin-V/PI staining by flow cytometry (reference value: 1.92 %). The assay is classed as functional.
Assay [26] relates to A549. As to the kind of experiment: Cell cycle arrest in human A549 cells assessed as accumulation at S phase at 0.1 uM after 48 hrs by flow cytometry (reference value: 13.83 %). It counts as functional.

In general, IC50 refers to the concentration that gives 50% inhibition. A lower IC50 goes with inhibition by little substance.

SMILES strings stand for the structures.

Turning to `COc1ccc(/C=C/c2nnc(NC(=O)c3ccccc3OC)s2)cc1OC`, the IC50 in assay [1] amounted to 260 nM; in [2] it was 540 nM; in [3], 29440 nM; in [4], 170 nM.

As for `COc1cc(/C=C/c2nnc(NC(=O)c3ccc(F)cc3)s2)c(Br)c(OC)c1OC`, the IC50 in [1] came out at 240 nM; in assay [2] it was 380 nM; in [3] it was 15630 nM; in [4], 190 nM.

Consider `COc1ccc(C(=O)Nc2nnc(/C=C/c3cc(OC)c(OC)c(OC)c3Br)s2)cc1OC`, for which the Activity result in [5] is “Dose-dependent effect”; in [6], 12.9%; in assay [8], 12.7%; in [9], 9.49%; in [10], 7.96%; in [11], 4.08%. Further, the Activity in [12] is recorded as 37.17%; in assay [14], 73.18%; in [15], 0%; in assay [16], 22%; in assay [17], 5.48%; in [19], 7.14%. The Activity in assay [20] is given as 3.21%; in [21], 89.26%; in assay [22], 3.86%; in [23], 19.68%; in [24] it was 53.34%; in assay [25] it was 3.41%. Besides, the Activity in [26] worked out at 10.74%. Also, the IC50 was 50 nM in assay [1], 60 nM in [2], 1730 nM in assay [3] and 30 nM in assay [4]. In addition, in assay [7], the viability at 0.1 µM came out at 61.8%. In assay [13], the viability at 0.01 µM came to 84.8%. Besides, in assay [18], the viability at 0.05 µM worked out at 77.8%.

Turning to `COc1cccc(/C=C/c2nnc(NC(=O)c3cc(OC)c(OC)c(OC)c3Br)s2)c1`, the IC50 in assay [1] was found to be 210 nM; in [2] it was 590 nM; in assay [3], 30360 nM; in assay [4], 190 nM.

As for `COc1cc(/C=C/c2nnc(NC(=O)c3cc(OC)c(OC)c(OC)c3Br)s2)c(Br)c(OC)c1OC`, the IC50 in assay [1] is 200 nM; in assay [2] it was 470 nM; in [3], 16790 nM; in assay [4], 130 nM.

For `COc1ccc(C(=O)Nc2nnc(/C=C/c3cc(OC)c(OC)c(OC)c3)s2)cc1OC`, the IC50 in [1] was determined as 250 nM; in assay [2] it was 480 nM; in [3], 15500 nM; in assay [4], 130 nM.

For the compound `COc1cc(/C=C/c2nnc(NC(=O)c3ccccc3)s2)c(Br)c(OC)c1OC`, the IC50 came to 180 nM in assay [1], 290 nM in [2], 9830 nM in assay [3] and 110 nM in assay [4].

In the case of `COc1ccc(/C=C\c2cc(OC)c(OC)c(OC)c2)cc1O` [COMBRETASTATIN A4], in assay [1], inhibition was half-maximal at 160 nM (IC50).

As for `COc1cc(/C=C/c2nnc(NC(=O)c3ccc(Br)cc3)s2)c(Br)c(OC)c1OC`, the 50% inhibitory concentration (IC50) came out at 200 nM in assay [1], 320 nM in [2], 15090 nM in [3] and 160 nM in assay [4].

Regarding `COc1cc(/C=C/c2nnc(NC(=O)c3cccc(F)c3)s2)c(Br)c(OC)c1OC`, the IC50 in [1] was found to be 170 nM; in [2] it was 340 nM; in assay [3], 7080 nM; in [4] it was 80 nM.

Take `COc1cccc(C(=O)Nc2nnc(/C=C/c3cc(OC)c(OC)c(OC)c3)s2)c1`: the IC50 was 270 nM in [1], 480 nM in [2], 22500 nM in assay [3] and 150 nM in [4].

Take `COc1ccc(/C=C/c2nnc(NC(=O)c3cc(OC)c(OC)c(OC)c3Br)s2)cc1`: the IC50 is 210 nM in assay [1], 550 nM in assay [2], 28580 nM in assay [3] and 180 nM in assay [4].

For `COc1cc(/C=C/c2nnc(NC(=O)c3cccc(Cl)c3)s2)c(Br)c(OC)c1OC`, the IC50 in assay [1] is 150 nM; in [2], 230 nM; in assay [3] it was 5680 nM; in [4] it was 70 nM.

As for `COc1cc(/C=C/c2nnc(NC(=O)c3ccc(Cl)cc3)s2)c(Br)c(OC)c1OC`, the IC50 worked out at 180 nM in assay [1], 280 nM in [2], 11810 nM in assay [3] and 140 nM in [4].

Turning to `COc1cc(/C=C/c2nnc(NC(=O)c3cccc(O)c3)s2)c(Br)c(OC)c1OC`, the concentration for half-maximal inhibition (IC50) worked out at 220 nM in assay [1], 360 nM in assay [2], 13440 nM in assay [3] and 120 nM in assay [4].

In the case of `COc1cc(/C=C/c2nnc(NC(=O)c3cccc(Br)c3)s2)c(Br)c(OC)c1OC`, the IC50 in assay [1] amounted to 160 nM; in assay [2] it was 260 nM; in [3], 6020 nM; in assay [4] it was 80 nM.

Turning to `COc1cc(C(=O)Nc2nnc(/C=C/c3cc(OC)c(OC)c(OC)c3Br)s2)cc(OC)c1OC`, the IC50 came to 210 nM in assay [1], 510 nM in [2], 16950 nM in assay [3] and 140 nM in assay [4].

Take `COc1ccc(/C=C/c2nnc(NC(=O)c3cc(OC)c(OC)c(OC)c3)s2)cc1OC`: the IC50 in assay [1] came out at 220 nM; in assay [2], 560 nM; in [3] it was 28060 nM; in [4], 160 nM.

`COc1cccc(C(=O)Nc2nnc(/C=C/c3cc(OC)c(OC)c(OC)c3Br)s2)c1`: the IC50 in assay [1] was 120 nM; in assay [2], 170 nM; in assay [3] it was 3080 nM; in [4] it was 60 nM.

For the compound `COc1ccccc1C(=O)Nc1nnc(/C=C/c2cc(OC)c(OC)c(OC)c2Br)s1`, the IC50 turned out to be 230 nM in assay [1], 600 nM in [2], 17910 nM in [3] and 170 nM in assay [4].

For the compound `COc1ccc(C(=O)Nc2nnc(/C=C/c3cc(OC)c(OC)c(OC)c3Br)s2)cc1`, the IC50 in [1] came to 220 nM; in assay [2], 560 nM; in assay [3], 18790 nM; in assay [4], 150 nM.

`COc1cc(/C=C/c2nnc(NC(=O)c3ccccc3Br)s2)c(Br)c(OC)c1OC`: the IC50 came out at 250 nM in assay [1], 370 nM in [2], 19450 nM in assay [3] and 210 nM in assay [4].

On to `COc1cc(/C=C/c2nnc(NC(=O)c3cccc(O)c3)s2)cc(OC)c1OC`, for which the IC50 was found to be 260 nM in [1], 460 nM in [2], 23670 nM in assay [3] and 190 nM in assay [4].

With `COc1cc(/C=C/c2nnc(NC(=O)c3cc(OC)c(OC)c(OC)c3)s2)cc(OC)c1OC`, the 50% inhibitory concentration (IC50) came to 280 nM in [1], 490 nM in assay [2], 23940 nM in [3] and 160 nM in assay [4].

(Values after ChEMBL document CHEMBL3352670, “Synthesis, biological evaluation and molecular modeling of 1,3,4-thiadiazol-2-amide derivatives as novel antitubulin agents” (Bioorg Med Chem, 2014).)
